Results reported in patent US20100267561A1, “HERBICIDAL PYRIDAZINONE DERIVATIVES” (priority 2007, published 2010).

Legend:
Assay type in all cases: in vivo
[1] = tested on: canarygrass (Phalaris minor); assay: Test B postemergence plant response; conditions: Postemergence
Description: (§1) At the same time, plants selected from these crop and weed species and also winter barley (Hordeum vulgare), canarygrass (Phalaris minor), chickweed (Stellaria media) and windgrass (Apera spica-venti) were treated with postemergence applications of some of the test chemicals formulated in the same manner. Plants ranged in height from 2 to 18 cm (1- to 4-leaf stage) for postemergence treatments.
(§2) Plant species in the flooded paddy test consisted of rice (Oryza sativa), umbrella sedge (Cyperus difformis), ducksalad (Heteranthera limosa) and barnyardgrass (Echinochloa crus-galli) grown to the 2-leaf stage for testing. At time of treatment, test pots were flooded to 3 cm above the soil surface, treated by application of test compounds directly to the paddy water, and then maintained at that water depth for the duration of the test. Treated plants and controls were maintained in a greenhouse for 13 to 15 days, after which time all species were compared to controls and visually evaluated. Plant response ratings, summarized in Table B, are based on a scale of 0 to 100 where 0 is no effect and 100 is complete control. A dash (-) response means no test result.

[2] = tested on: chickweed (Stellaria media); assay: Test B postemergence plant response; conditions: Postemergence
Description: as §1, §2

[3] = tested on: winter barley (Hordeum vulgare); assay: Test B postemergence plant response; conditions: Postemergence
Description: as §1, §2

[4] = tested on: windgrass (Apera spica-venti); assay: Test B postemergence plant response; conditions: Postemergence
Description: as §1, §2

[5] = tested on: wheat (Triticum aestivum); assay: Test B pre-/postemergence plant response
Description: (§3) Seeds of plant species selected from blackgrass (Alopecurus myosuroides), downy bromegrass (Bromus tectorum), green foxtail (Setaria viridis), Italian ryegrass (Lolium multiflorum), wheat (Triticum aestivum), wild oat (Avena fatua), catchweed bedstraw (Galium aparine), bermudagrass (Cynodon dactylon), surinam grass (Brachiaria decumbens), cocklebur (Xanthium strumarium), corn (Zea mays), large crabgrass (Digitaria sanguinalis), woolly cupgrass (Eriochloa villosa), giant foxtail (Setaria faberii), goosegrass (Eleusine indica), johnsongrass (Sorghum halepense), kochia (Kochia scoparia), lambsquarters (Chenopodium album), morningglory (Ipomoea coccinea), eastern black (E.B.) nightshade (Solanum ptycanthum), yellow nutsedge (Cyperus esculentus), pigweed (Amaranthus retroflexus), common ragweed (Ambrosia elation), Russian thistle (Salsola iberica), soybean (Glycine max), common (oilseed) sunflower (Helianthus annuus), and velvetleaf (Abutilon theophrasti) were planted and treated preemergence with test chemicals formulated in a non-phytotoxic solvent mixture which included a surfactant.
as §1, §2

[6] = tested on: soybean (Glycine max); assay: Test B pre-/postemergence plant response
Description: as §3, §1, §2

[7] = tested on: bermudagrass (Cynodon dactylon); assay: Test B pre-/postemergence plant response
Description: as §3, §1, §2

[8] = tested on: pigweed (Amaranthus retroflexus); assay: Test B pre-/postemergence plant response
Description: as §3, §1, §2

[9] = tested on: downy bromegrass (Bromus tectorum); assay: Test B pre-/postemergence plant response
Description: as §3, §1, §2

[10] = tested on: giant foxtail (Setaria faberii); assay: Test B pre-/postemergence plant response
Description: as §3, §1, §2

[11] = tested on: surinam grass (Brachiaria decumbens); assay: Test B pre-/postemergence plant response
Description: as §3, §1, §2

[12] = tested on: morningglory (Ipomoea coccinea); assay: Test B pre-/postemergence plant response
Description: as §3, §1, §2

[13] = tested on: Italian ryegrass (Lolium multiflorum); assay: Test B pre-/postemergence plant response
Description: as §3, §1, §2

[14] = tested on: lambsquarters (Chenopodium album); assay: Test B pre-/postemergence plant response; conditions: Postemergence
Description: as §3, §1, §2

[15] = tested on: common (oilseed) sunflower (Helianthus annuus); assay: Test B pre-/postemergence plant response; conditions: Preemergence
Description: as §3, §1, §2

[16] = 31 g ai/ha, scale 0 to 100, 0 no effect, 100 complete control
[17] = Postemergence, 31 g ai/ha, scale 0 to 100, 0 no effect, 100 complete control
[18] = Postemergence, 62 g ai/ha, scale 0 to 100
[19] = Postemergence, 125 g ai/ha, scale 0 to 100
[20] = Postemergence, 250 g ai/ha, scale 0 to 100
[21] = Preemergence, 31 g ai/ha, 0 to 100 scale, 0 no effect, 100 complete control
[22] = Preemergence, 62 g ai/ha, scale 0 to 100
[23] = Preemergence, 125 g ai/ha, scale 0 to 100
[24] = Preemergence, 250 g ai/ha, scale 0 to 100

4-[3-(4-chlorophenyl)-5-methyl-1H-pyrazol-3-yl]-5-hydroxy-2-methyl-3(2H)-pyridazinone [Compound 3]
Plant response rating, Canarygrass [1, 16]: 85
Plant response rating, Canarygrass ([1]; 62 g ai/ha, scale 0 to 100): 85
Plant response rating, Canarygrass ([1]; 125 g ai/ha, scale 0 to 100): 85
Plant response rating, Canarygrass ([1]; 250 g ai/ha, scale 0 to 100): 90
Plant response rating, Chickweed [2, 16]: 0
Plant response rating, Chickweed ([2]; 62 g ai/ha, scale 0 to 100): 0
Plant response rating, Chickweed ([2]; 125 g ai/ha, scale 0 to 100): 0
Plant response rating, Chickweed ([2]; 250 g ai/ha, scale 0 to 100): 0
Plant response rating, Barley [3, 16]: 0
Plant response rating, Barley ([3]; 62 g ai/ha, scale 0 to 100): 0
Plant response rating, Barley ([3]; 125 g ai/ha, scale 0 to 100): 0
Plant response rating, Barley ([3]; 250 g ai/ha, scale 0 to 100): 0
Plant response rating, Windgrass [4, 16]: 80
Plant response rating, Windgrass ([4]; 62 g ai/ha, scale 0 to 100): 100
Plant response rating, Windgrass ([4]; 125 g ai/ha, scale 0 to 100): 100
Plant response rating, Windgrass ([4]; 250 g ai/ha, scale 0 to 100): 100
Plant response rating, Wheat [5, 17]: 80
Plant response rating, Wheat [5, 18]: 90
Plant response rating, Wheat [5, 19]: 100
Plant response rating, Wheat [5, 20]: 100
Plant response rating, Wheat [5, 21]: 45
Plant response rating, Wheat [5, 22]: 75
Plant response rating, Wheat [5, 23]: 95
Plant response rating, Wheat [5, 24]: 98
Plant response rating, Soybean [6, 17]: 0
Plant response rating, Soybean [6, 18]: 40
Plant response rating, Soybean [6, 19]: 40
Plant response rating, Soybean [6, 20]: 60
Plant response rating, Soybean [6, 21]: 0
Plant response rating, Soybean [6, 22]: 0
Plant response rating, Soybean [6, 23]: 0
Plant response rating, Soybean [6, 24]: 0
Bermudagrass plant response rating ([7]; 250 g ai/ha, preemergence, 0-100 scale): 100
Plant response rating, Bermudagrass [7, 17]: 100
Plant response rating, Bermudagrass [7, 18]: 100
Plant response rating, Bermudagrass [7, 19]: 100
Plant response rating, Bermudagrass [7, 20]: 100
Plant response rating, Bermudagrass [7, 21]: 30
Plant response rating, Bermudagrass [7, 22]: 100
Plant response rating, Bermudagrass [7, 23]: 100
Plant response rating, Pigweed [8, 17]: 0
Plant response rating, Pigweed [8, 18]: 0
Plant response rating, Pigweed [8, 19]: 10
Plant response rating, Pigweed [8, 20]: 25
Plant response rating, Pigweed [8, 21]: 0
Plant response rating, Pigweed [8, 22]: 90
Plant response rating, Pigweed [8, 23]: 90
Plant response rating, Pigweed [8, 24]: 90
Plant response rating, Bromegrass, Downy [9, 17]: 5
Plant response rating, Bromegrass, Downy [9, 18]: 5
Plant response rating, Bromegrass, Downy [9, 19]: 5
Plant response rating, Bromegrass, Downy [9, 20]: 5
Plant response rating, Bromegrass, Downy [9, 21]: 50
Plant response rating, Bromegrass, Downy [9, 22]: 60
Plant response rating, Bromegrass, Downy [9, 23]: 95
Plant response rating, Bromegrass, Downy ([9]; Preemergence, 250 g ai/ha, scale 0 to 100 (0 no effect, 100 complete control)): 98
Plant response rating, Foxtail, Giant [10, 17]: 100
Plant response rating, Foxtail, Giant [10, 18]: 100
Plant response rating, Foxtail, Giant [10, 19]: 100
Plant response rating, Foxtail, Giant [10, 20]: 100
Plant response rating, Foxtail, Giant [10, 21]: 98
Plant response rating, Foxtail, Giant [10, 22]: 98
Plant response rating, Foxtail, Giant [10, 23]: 100
Plant response rating, Foxtail, Giant [10, 24]: 100
Plant response rating, Surinam Grass [11, 17]: 100
Plant response rating, Surinam Grass [11, 18]: 100
Plant response rating, Surinam Grass [11, 19]: 100
Plant response rating, Surinam Grass [11, 20]: 100
Plant response rating, Surinam Grass [11, 21]: 100
Plant response rating, Surinam Grass [11, 22]: 100
Plant response rating, Surinam Grass [11, 23]: 100
Plant response rating, Surinam Grass [11, 24]: 100
Plant response rating, Morningglory [12, 17]: 0
Plant response rating, Morningglory [12, 18]: 0
Plant response rating, Morningglory [12, 19]: 0
Plant response rating, Morningglory [12, 20]: 0
Plant response rating, Morningglory [12, 21]: 0
Plant response rating, Morningglory [12, 22]: 0
Plant response rating, Morningglory [12, 23]: 0
Plant response rating, Morningglory [12, 24]: 0
Plant response rating, Ryegrass, Italian [13, 17]: 95
Plant response rating, Ryegrass, Italian [13, 18]: 100
Plant response rating, Ryegrass, Italian [13, 19]: 100
Plant response rating, Ryegrass, Italian [13, 20]: 100
Plant response rating, Ryegrass, Italian [13, 21]: 98
Plant response rating, Ryegrass, Italian [13, 22]: 100
Plant response rating, Ryegrass, Italian [13, 23]: 100
Plant response rating, Ryegrass, Italian [13, 24]: 100
Plant response rating, Lambsquarters [14, 16]: 0
Plant response rating, Lambsquarters ([14]; 62 g ai/ha, scale 0 to 100): 0
Plant response rating, Lambsquarters ([14]; 125 g ai/ha, scale 0 to 100): 15
Plant response rating, Lambsquarters ([14]; 250 g ai/ha, scale 0 to 100): 20
Plant response rating, Sunflower ([15]; 31 g ai/ha, 0 to 100 scale, 0 no effect, 100 complete control): 30
Plant response rating, Sunflower ([15]; 62 g ai/ha, scale 0 to 100): 40
